± gives the expanded uncertainty stated by the source.
Experiment: xn = mol fraction of the nth substance listed
Settings: Liquid; for mass density / viscosity: 101 kPa; for speed of sound: 7 kPa

For `CCCC(C)O` (centres undefined) [pentan-2-ol] + C1CCCCC1, which mass density (298.15 K, x2 = 0.2019) is on record?
The mass density was 796 ± 0.48 kg/m3.

And the viscosity (298.15 K, x2 = 0.2019)?
Its viscosity is 2.125 ± 0.051 mPa·s.

What about the mass density (298.15 K, x2 = 0.3067) of the same compound?
The mass density was 791.67 ± 0.48 kg/m3.

What about the viscosity (298.15 K, x2 = 0.3067) of the same compound?
Its viscosity is 1.659 ± 0.04 mPa·s.

What about the mass density (298.15 K, x2 = 0.4011) of the same compound?
Its mass density is 787.98 ± 0.48 kg/m3.

What about the viscosity (298.15 K, x2 = 0.4011) of the same compound?
Its viscosity is 1.385 ± 0.034 mPa·s.

And the mass density (298.15 K, x2 = 0.5085)?
The mass density was 784.11 ± 0.48 kg/m3.

And the viscosity (298.15 K, x2 = 0.5085)?
The viscosity was 1.178 ± 0.029 mPa·s.

What about the mass density (298.15 K, x2 = 0.6066) of the same compound?
Its mass density is 781.09 ± 0.48 kg/m3.

And the viscosity (298.15 K, x2 = 0.6066)?
Its viscosity is 1.056 ± 0.026 mPa·s.

And the mass density (298.15 K, x2 = 0.7118)?
The mass density was 778.32 ± 0.49 kg/m3.

And the viscosity (298.15 K, x2 = 0.7118)?
The viscosity was 0.97 ± 0.024 mPa·s.

What about the mass density (298.15 K, x2 = 0.8096) of the same compound?
The mass density was 776.18 ± 0.49 kg/m3.

And the viscosity (298.15 K, x2 = 0.8096)?
Its viscosity is 0.952 ± 0.024 mPa·s.

And the mass density (298.15 K, x2 = 0.9049)?
Its mass density is 774.54 ± 0.49 kg/m3.

And the viscosity (298.15 K, x2 = 0.9049)?
The viscosity was 0.924 ± 0.023 mPa·s.

And the mass density (298.15 K, x2 = 0.9557)?
Its mass density is 773.86 ± 0.49 kg/m3.

And the viscosity (298.15 K, x2 = 0.9557)?
Its viscosity is 0.912 ± 0.023 mPa·s.

And the speed of sound (303.15 K, x2 = 0)?
Its speed of sound is 1214 ± 3 m/s.

And the speed of sound (303.15 K, x2 = 0.0495)?
Its speed of sound is 1210 ± 3 m/s.

And the speed of sound (303.15 K, x2 = 0.1002)?
Its speed of sound is 1206 ± 3 m/s.

What about the speed of sound (303.15 K, x2 = 0.2019) of the same compound?
Its speed of sound is 1199 ± 3 m/s.

And the speed of sound (303.15 K, x2 = 0.3067)?
The speed of sound was 1193 ± 3 m/s.

And the speed of sound (303.15 K, x2 = 0.4011)?
Its speed of sound is 1189 ± 3 m/s.

And the speed of sound (303.15 K, x2 = 0.5085)?
The speed of sound was 1187 ± 3 m/s.

And the speed of sound (303.15 K, x2 = 0.6066)?
The speed of sound was 1189 ± 3 m/s.

What about the speed of sound (303.15 K, x2 = 0.7118) of the same compound?
The speed of sound was 1194 ± 3 m/s.

What about the speed of sound (303.15 K, x2 = 0.8096) of the same compound?
Its speed of sound is 1201 ± 3 m/s.

What about the speed of sound (303.15 K, x2 = 0.9049) of the same compound?
The speed of sound was 1211 ± 3 m/s.

And the speed of sound (303.15 K, x2 = 0.9557)?
The speed of sound was 1219 ± 3 m/s.

And the mass density (303.15 K, x2 = 0)?
Its mass density is 800.9 ± 0.48 kg/m3.

And the viscosity (303.15 K, x2 = 0)?
Its viscosity is 2.774 ± 0.066 mPa·s.

What about the mass density (303.15 K, x2 = 0.0495) of the same compound?
The mass density was 798.6 ± 0.48 kg/m3.

What about the viscosity (303.15 K, x2 = 0.0495) of the same compound?
Its viscosity is 2.474 ± 0.059 mPa·s.

What about the mass density (303.15 K, x2 = 0.1002) of the same compound?
The mass density was 796.28 ± 0.48 kg/m3.

What about the viscosity (303.15 K, x2 = 0.1002) of the same compound?
The viscosity was 2.237 ± 0.054 mPa·s.

What about the mass density (303.15 K, x2 = 0.2019) of the same compound?
Its mass density is 791.65 ± 0.48 kg/m3.

What about the viscosity (303.15 K, x2 = 0.2019) of the same compound?
The viscosity was 1.82 ± 0.044 mPa·s.

What about the mass density (303.15 K, x2 = 0.3067) of the same compound?
The mass density was 787.23 ± 0.49 kg/m3.

What about the viscosity (303.15 K, x2 = 0.3067) of the same compound?
The viscosity was 1.441 ± 0.035 mPa·s.

And the mass density (303.15 K, x2 = 0.4011)?
Its mass density is 783.48 ± 0.49 kg/m3.

And the viscosity (303.15 K, x2 = 0.4011)?
Its viscosity is 1.233 ± 0.03 mPa·s.

What about the mass density (303.15 K, x2 = 0.5085) of the same compound?
Its mass density is 779.56 ± 0.49 kg/m3.

And the viscosity (303.15 K, x2 = 0.5085)?
The viscosity was 1.058 ± 0.026 mPa·s.

What about the mass density (303.15 K, x2 = 0.6066) of the same compound?
The mass density was 776.49 ± 0.49 kg/m3.

What about the viscosity (303.15 K, x2 = 0.6066) of the same compound?
The viscosity was 0.957 ± 0.024 mPa·s.

What about the mass density (303.15 K, x2 = 0.7118) of the same compound?
The mass density was 773.65 ± 0.49 kg/m3.

And the viscosity (303.15 K, x2 = 0.7118)?
The viscosity was 0.885 ± 0.022 mPa·s.

And the mass density (303.15 K, x2 = 0.8096)?
Its mass density is 771.44 ± 0.49 kg/m3.

What about the viscosity (303.15 K, x2 = 0.8096) of the same compound?
The viscosity was 0.871 ± 0.022 mPa·s.

What about the mass density (303.15 K, x2 = 0.9049) of the same compound?
The mass density was 769.74 ± 0.49 kg/m3.

And the viscosity (303.15 K, x2 = 0.9049)?
Its viscosity is 0.845 ± 0.022 mPa·s.

And the mass density (303.15 K, x2 = 0.9557)?
Its mass density is 769.07 ± 0.49 kg/m3.

What about the viscosity (303.15 K, x2 = 0.9557) of the same compound?
The viscosity was 0.837 ± 0.021 mPa·s.
